Data set [1] concerns the target T1, Free fatty acid receptor 1 (Homo sapiens, UniProt O14842). As to the kind of experiment: Agonist activity at GPR40 (unknown origin) expressed in CHO cells incubated for 2 hrs measured over 20 secs in presence of human serum albumin by aequorin based luminescence assay. It counts as functional, cell-based.
Data set [2] addresses T1, Free fatty acid receptor 1. As to the kind of experiment: Agonist activity at GPR40 (unknown origin) expressed in CHO cells incubated for 2 hrs measured over 20 secs in presence of human serum albumin by aequorin based luminescence assay relative to AM-1638. Type of data set: functional, cell-based.
The nature of data set [3]: Fraction unbound in rat plasma at 0.5 mg/kg, iv or 2 mg/kg, po. Type of data set: ADME, organism-based.
Data set [4] can be described thus: Cmax in rat at 2 mg/kg, po. It counts as ADME, organism-based. The arrangement: dose 2 mg/kg, route oral. The conditions noted are these: in vivo.
Data set [5] in a line: (§1) AUC in rat at 2 mg/kg, po. It counts as ADME, organism-based. The conditions noted are these: in vivo.
Data set [6] in a line: Half life in rat at 0.5 mg/kg, iv. Type of data set: ADME, organism-based. To be noted: in vivo.
The nature of data set [7]: Oral bioavailability in rat at 2 mg/kg. Type of data set: ADME, organism-based. To be noted: in vivo.
Data set [8] can be described thus: Clearance in rat at 0.5 mg/kg, iv. The conditions noted are these: in vivo.
For data set [9], the system named is Rattus norvegicus. As to the kind of experiment: Volume of distribution at steady state in rat at 0.5 mg/kg, iv. The conditions noted are these: in vivo.
Data set [10] concerns Rattus norvegicus. The data set is described as §1. It counts as ADME, organism-based. To be noted: in vivo.
Data set [11] is described as follows: Fraction unbound in cynomolgus monkey plasma at 0.5 mg/kg, iv. Type of data set: ADME, organism-based, Macaca fascicularis.
The nature of data set [12]: AUC in cynomolgus monkey at 10 mg/kg, po. To be noted: in vivo. It counts as ADME, organism-based, Macaca fascicularis.
Data set [13] deals with Cynomolgus monkey. As to the kind of experiment: Volume of distribution at steady state in cynomolgus monkey at […]. Type of data set: ADME, organism-based, Macaca fascicularis. To be noted: in vivo.
The nature of data set [14]: Oral bioavailability in cynomolgus monkey at 10 mg/kg. It counts as ADME, organism-based, Macaca fascicularis. The conditions noted are these: in vivo.
The subject of data set [15] is Rattus norvegicus. As to the kind of experiment: Clearance in rat at 0.5 mg/kg, iv. To be noted: in vivo.
A short description of data set [16]: Clearance in cynomolgus monkey at 0.5 mg/kg, iv. To be noted: in vivo.
The nature of data set [17]: Fraction unbound in dog plasma at 0.5 mg/kg, iv. It counts as ADME, organism-based, Canis lupus familiaris.
A short description of data set [18]: AUC in dog at 2 mg/kg, po. It counts as ADME, organism-based, Canis lupus familiaris. To be noted: in vivo.
The subject of data set [19] is Canis familiaris. As to the kind of experiment: Volume of distribution at steady state in dog at […]. It counts as ADME, organism-based, Canis lupus familiaris. To be noted: in vivo.
The nature of data set [20]: Half life in dog at 0.5 mg/kg, iv. The conditions noted are these: in vivo. Type of data set: ADME, organism-based, Canis lupus familiaris.
Data set [21] in a line: Half life in cynomolgus monkey at 0.5 mg/kg, iv. Type of data set: ADME, organism-based, Macaca fascicularis. The conditions noted are these: in vivo.
Data set [22] is described as follows: Oral bioavailability in dog at 2 mg/kg. It counts as ADME, organism-based, Canis lupus familiaris. The conditions noted are these: in vivo.
The subject of data set [23] is Cynomolgus monkey. As to the kind of experiment: Antidiabetic activity in prediabetic high fat feed cynomolgus monkey assessed as reduction in plasma glucose AUC at 10 mg/kg, po administered via gavage 2 hrs prior to glucose challenge by oral glucose tolerance test. Further details: scale not given: the % may be the effect or the level left. Type of data set: functional, Macaca fascicularis.

The nature of data set [24]: Clearance in dog at 0.5 mg/kg, iv. To be noted: in vivo.

T1 sequence (O14842 whole entry): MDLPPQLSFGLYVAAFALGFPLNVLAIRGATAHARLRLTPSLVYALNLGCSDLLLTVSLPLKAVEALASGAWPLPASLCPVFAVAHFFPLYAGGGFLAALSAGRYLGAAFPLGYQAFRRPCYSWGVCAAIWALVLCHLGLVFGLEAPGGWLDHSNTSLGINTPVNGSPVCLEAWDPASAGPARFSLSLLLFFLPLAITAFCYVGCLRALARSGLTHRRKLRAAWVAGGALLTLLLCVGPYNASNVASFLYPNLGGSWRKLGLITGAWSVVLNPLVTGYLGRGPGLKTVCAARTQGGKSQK

Turning to `COc1ccc(F)c(-c2ccc(COc3cccc([C@H](CC(=O)O)C4CC4)c3)cc2[C@@H]2CCCC2(C)C)c1`, the EC50 (in general, the concentration that produces a half-maximal response) in [1] came out at 1830 nM. The Efficacy in data set [2] is 89%.
On the same counts, the results for `CCC[C@H](CC(=O)O)c1cccc(OCc2ccc(-c3cc(OC)ccc3F)c([C@@H]3CCCC3(C)C)c2)c1` are 110 nM and 100%.
In the case of `COc1ccc(F)c(-c2ccc(COc3cccc([C@H](C)CC(=O)O)c3)cc2[C@@H]2CCCC2(C)C)c1`, the 50% effective concentration (EC50) in data set [1] turned out to be 170 nM. Further, the Efficacy in data set [2] was 106%.
On the same counts, the results for `COc1ccc(F)c(-c2ccc(COc3cccc([C@@H](CC(=O)O)C4CC4)c3)cc2[C@H]2CCCC2(C)C)c1` are 310 nM and 100%.
For `CC[C@H](CC(=O)O)c1cccc(OCc2ccc(-c3cc(OC)ccc3F)c([C@@H]3CCCC3(C)C)c2)c1`, the half-maximal effective concentration (EC50) in [1] is 80 nM. The Efficacy in [2] was 102%. For the same molecule, the unbound share (fraction unbound) – broadly, the share of the substance not bound to proteins or other matrix – in data set [3] was 0.006. Further, the peak concentration (Cmax) (in general, the peak of the concentration-time curve) in data set [4] turned out to be 370 nM. In data set [5], the exposure (AUC) (in general, the area under the concentration-time curve, a measure of exposure) is 1.74 µM·h. Further, the half-life (usually the time needed for the level to fall by half in the phase considered) in [6] is 2.1 h. For the same molecule, the bioavailability (commonly the share of a dose that reaches the circulation, judged against a reference dose that is usually intravenous) in data set [7] was 29%. Further, the clearance (as a rule, the rate of elimination divided by the concentration) in [8] was 11.2 mL/min/kg. The molecule further showed a Vdss in data set [9] of 1.12 L/kg.
For `COc1ccc(F)c(-c2ccc(COc3cccc([C@@H](CC(=O)O)C4CC4)c3)cc2C2=CCCC2(C)C)c1`, the Efficacy in data set [2] was found to be 100%. The values for the unbound share (fraction unbound) in data set [3] and in data set [11] were 0.01 and 0.012, respectively. Also, the AUC in [10] worked out at 15.1 µM·h; in data set [12] it was 18.8 µM·h. Further, the Vdss is 2 L/kg in data set [13] and 1.1 L/kg in data set [9]. Moreover, the bioavailability in [14] turned out to be 71%. Further, the CL in [15] came out at 15.2 mL/min/kg. In data set [16], this molecule returned a clearance of 13.5 mL/min/kg.
Take `CC[C@H](CC(=O)O)c1cc(OCc2ccc(-c3cc(OC)ccc3F)c([C@@H]3CCCC3(C)C)c2)ccc1F`: in data set [1], the half-maximal effective concentration (EC50) was 210 nM. The Efficacy in data set [2] was 100%.
On the same counts, the results for `COc1ccc(F)c(-c2ccc(COc3cccc(CCC(=O)O)c3)cc2[C@@H]2CCCC2(C)C)c1` are 450 nM and 120%.
On the same counts, the results for `COc1ccc(F)c(-c2ccc(COc3cccc([C@@H](CC(=O)O)CC4CC4)c3)cc2[C@@H]2CCCC2(C)C)c1` are 100 nM and 98%.
Turning to `CC[C@@H](CC(=O)O)c1cccc(OCc2ccc(-c3cc(OC)ccc3F)c([C@@H]3CCCC3(C)C)c2)c1`, the EC50 in [1] is 1960 nM. In addition, the Efficacy in data set [2] worked out at 76%.
With `COc1ccc(F)c(-c2ccc(COc3cccc([C@@H](CC(=O)O)C4CC4)c3F)cc2[C@@H]2CCCC2(C)C)c1`, the EC50 in [1] amounted to 100 nM. The Efficacy in [2] is 100%. In [3], this molecule showed a free fraction (fraction unbound) of 0.003. Besides, the Cmax in [4] is 360 nM. The molecule also showed an AUC in data set [5] of 2.43 µM·h. The molecule further gave a half-life in [6] of 3.3 h. Further, in [7], the bioavailability was 32%. In addition, in [8], the clearance turned out to be 8.17 mL/min/kg. Besides, the Vdss in data set [9] was 1.9 L/kg.
As for `CC[C@H](CC(=O)O)c1cccc(OCc2ccc(-c3cc(OC)ccc3F)c(C3CCCC3(C)C)c2)c1F` (single isomer, unassigned), the half-maximal effective concentration (EC50) in data set [1] worked out at 120 nM. The Efficacy in [2] turned out to be 104%. The free fraction (fraction unbound) is 0.003 in data set [3], 0.034 in data set [17] and 0.017 in data set [11]. Besides, the Cmax in data set [4] turned out to be 1180 nM. The AUC in data set [5] is 8.22 µM·h; in data set [18] it was 11.6 µM·h; in data set [12] it was 80.4 µM·h. For the same molecule, the half-life in data set [6] was 2 h; in [20], 4.1 h; in data set [21] it was 3.3 h. Moreover, the results for the bioavailability in [7], in data set [22] and in data set [14] were 72%, 62% and 91%, respectively. Further, the Vdss in data set [19] was found to be 0.68 L/kg; in data set [13] it was 0.5 L/kg; in data set [9] it was 0.81 L/kg. Besides, the Activity in data set [23] is 18%. Besides, the values for the clearance in [8], in data set [24] and in data set [16] were 5.5 mL/min/kg, 3.5 mL/min/kg and 3.67 mL/min/kg, respectively.
With `N[C@@H](CC(=O)N1CCn2c(nnc2C(F)(F)F)C1)Cc1cc(F)c(F)cc1F` [SITAGLIPTIN], the Activity in data set [23] was 13%.
Take `COc1ccc(F)c(-c2ccc(COc3cccc([C@@H](CC(=O)O)C4CC4)c3)cc2C2CCCC2(C)C)c1` (mixture of isomers): the EC50 in [1] came to 140 nM. The Efficacy in data set [2] worked out at 97%.
The matching figures for `CC[C@H](CC(=O)O)c1cc(F)cc(OCc2ccc(-c3cc(OC)ccc3F)c([C@@H]3CCCC3(C)C)c2)c1`: 90 nM and 105%.
Turning to `CC[C@H](CC(=O)O)c1ccc(F)c(OCc2ccc(-c3cc(OC)ccc3F)c(C3=CCCC3(C)C)c2)c1`, the EC50 in data set [1] was determined as 740 nM. Moreover, in [2], the Efficacy worked out at 82%.
As to `COc1ccc(F)c(-c2ccc(COc3cccc([C@@H](CC(=O)O)C4CCC4)c3)cc2[C@@H]2CCCC2(C)C)c1`, in data set [1], the EC50 came out at 90 nM. The Efficacy in data set [2] amounted to 100%.
Take `COc1ccc(F)c(-c2ccc(COc3cccc([C@@H](CC(=O)O)C4CC4)c3)cc2[C@@H]2CCCC2(C)C)c1`: the EC50 in [1] is 80 nM. Also, the Efficacy in data set [2] amounted to 101%. Also, the fraction unbound in [3] was determined as 0.006. Further, in [4], the peak concentration (Cmax) amounted to 250 nM. This molecule also yielded an AUC in [5] of 1.83 µM·h. The same molecule registered a clearance in data set [8] of 12 mL/min/kg. In data set [9], this molecule yielded a Vdss of 1.68 L/kg.

Source of the values: ChEMBL document CHEMBL4196127, “Discovery of AM-6226: A Potent and Orally Bioavailable GPR40 Full Agonist That Displays Efficacy in Nonhuman Primates” (ACS Med Chem Lett, 2018).
